{"source": "patent US10512624B2", "about": "“Long-chain amphipathic dicarboxylic acids for treatment of diabetes type-1” (Syndromex Ltd., priority 2016, dated 2019)", "key": {"[1]": {"test_system": "STZ diabetic rats", "test": "Anti-diabetic efficacy in streptozotocin (STZ) diabetic rats (FBG, IPGTT, IPITT, fluid balance, insulin/glucagon content)", "format": "in vivo, rat", "settings": "sub-therapeutic insulin NPH 3 u/kg b.i.d alone, STZ diabetic rats", "description": "Male Sprague-Dawley (SD) rats weighing 250-275 gr were fed ad libitum (Harlan Teklad 2018), had free access to water, and were kept on a 12:12 h light:dark cycle. Experimental type 1 diabetes (T1D) was induced in overnight fasted rats by a single intra-peritoneal injection of streptozotocin (STZ, 60 mg/kg body weight, Sigma Aldrich) freshly prepared in 0.1 M of cold citrate buffer (pH 4.5), followed by oral 10% glucose solution for the next 24 hours to overcome STZ-induced acute hypoglycemia. STZ diabetic rats (defined as having a fasting blood glucose (FBG) level higher than 300 mg/dl) were selected for further studies.\nSHAM (control) rats were injected with 0.1 M of cold citrate buffer (pH 4.5). STZ diabetic or SHAM rats were dosed twice daily by gavage (orally) with 1% CMC (Sigma Aldrich C5678), or with HOOC—C(CH3)2—(CH2)12—C(CH3)2—COOH (2,2,15,15-tetramethylhexadecane-1,16-dioic acid) also termed herein “MEDICA16αα”, “Medica16αα” or M16αα(15 mg/kg body weight) suspended in 1% CMC, or injected intraperitoneal (i.p.) with Neutral Protamine Hagedorn (NPH) insulin (3 u/kg body weight b.i.d), as indicated.\n(§1) Administering a combination of Medica16αα and insulin was performed by treating STZ diabetic rats (FBG >300 mg/dl) with oral MEDICA16αα(15 mg/kg b.i.d) for five consecutive days, then MEDICA16αα-responsive rats were further treated with MEDICA16αα(15 mg/kg b.i.d) for 10 additional consecutive days (“STZ/MEDICA Res”), and MEDICA16αα non-responsive rats (FBG >250 mg/dl) were further treated for 10 additional consecutive days with either insulin Neutral Protamine Hagedorn (NPH) (3 u/kg b.i.d subcutaneously) (“STZ/NPH”), or with insulin NPH (3 u/kg b.i.d subcutaneously in combination with oral MEDICA16αα(15 mg/kg b.i.d) (“STZ/MEDICA NPH”).\nTail vein FBG was verified daily by a glucometer (Glucometer®, Accu-Check® Performa, Roche Diagnostics). Urine secretion, food and water consumption were measured in standard metabolic cages (Tecniplast™ Metabolic Cage Systems for Rodents) for 48 hour periods. Samples were collected and recorded every 12 hour.\nOvernight fasted rats were injected i.p (1 gr glucose/kg bw) with 20% dextrose solution (Teva Medical). Tail vein blood was sampled on 0, 30, 60, 90 and 120 minutes following glucose injection.\nFasted rats (5 hours fast) were injected i.p (2 u/kg bw) with HumulinR insulin (Eli Lilly). Tail blood glucose levels were measured by glucometer at 0, 15, 30, 60, and 120 min following insulin injection.\n(§2) Pancreas and plasma insulin and glucagon content were determined by insulin (Millipore, Cat #RI-13K) and glucagon (Millipore, Cat # GL-32K) radioimmunoassay (RIA) kits. cAMP levels were measured by cAMP kit (Arbor Assays, DetectX Cat # K019-H1)."}, "[2]": {"test_system": "hepatic gluconeogenesis", "test": "Suppression of hepatic gluconeogenesis in STZ diabetic rats (RT-PCR, Western blot, cAMP kit)", "format": "in vivo, rat", "description": "as §1\nSampled frozen tissue was homogenized (Polytron) in lysis buffer (50 mM Tris HCl, pH 8.0, 1% Triton X-100, 1 mM EGTA, 1 mM EDTA, 150 mM NaCl, 5 mM NaPPi, 50 mM NaF, 1 mM PMSF, 1 mM Na Vanadate, 40 nM bpVfan and protease inhibitor cocktail (Sigma)), and centrifuged for 15 min at 12,500 rpm.\nProtein lysates were prepared in sodium dodecyl sulfate (SDS) sample buffer (62 mM Tris (pH 6.8), 2.3% SDS, […] mercaptoethanol, 10% glycerol), and were subjected to SDS-PAGE, electro-transferred onto cellulose nitrate membranes (Schleicher & Schuell) and probed with the indicated first antibody, followed by HRP-labeled second antibody. Protein concentration was determined by BCA (Thermo Scientific). Bands were detected by ECL, and the intensity of individual bands was determined by densitometry using ImageJ 1.48 v software.\nSampled frozen tissue was homogenized (Polytron) in lysis buffer (50 mM Hepes (pH 7.4), 150 mM NaCl, 10% Glycerol, 1.5 mM MgCl2, 1 mM EGTA, 1% Triton, 50 mM β-glycerolphosphate, 25 mM NaF, 1 mM Na-vanadate, 40 nM bpVphen, protease inhibitor mix (Sigma) and 17.5 mg/ml octyl beta-D-glucopyranoside (Sigma)). Lysates were kept on ice for 30 min and centrifuged at 12000 rpm for 15 min. Lysates ([…]) were incubated for 4 h with protein A/G beads (Santa Cruz Biotechnology) pre-loaded with the indicated antibody. The immune-precipitate was rinsed 3 times with washing buffer (20 mM Hepes (pH 7.4), 150 mM NaCl, 0.1% Tx-100, 10% glycerol), re-suspended in SDS sample buffer, boiled for 8 min, and analyzed by SDS-PAGE.\nTotal RNA was prepared using the TRI reagent (Sigma Aldrich). First-strand cDNA used as template was synthesized by reverse transcription using oligo(dT) as primer and the Reverse-iTMAX First Strand Kit (ABgene, Epson). Glucose-6-phosphatase (G6Pase) and phosphoenolpyruvate carboxykinase (PEPCK) transcripts normalized by tubulin were quantified by real-time PCR (Rotor Gene RG-3000A) using SYBER green MasterMix (Absolute Syber Green ROX Mix, ABgene) and the following primers: […]\nas §2"}, "[3]": {"test_system": "T1D patients", "settings": "insulin-treated (>1 u/kg body weight/day) T1D patients, meta-analysis (ref 12); cited from earlier work"}, "[4]": {"test_system": "STZ diabetic rat model, NOD mouse model", "settings": "cited from earlier work"}, "[5]": {"test_system": "adipose adenylate cyclase", "settings": "cited from earlier work"}}, "data": [{"compound": "insulin NPH: Neutral Protamine Hagedorn (NPH) insulin, intermediate-acting insulin, used at sub-therapeutic dose 3 u/kg b.i.d", "values": [{"measurement": "controlling glycemia (FBG, IPGTT, IPITT, fluid balance)", "setting": "[1]", "result": "without any effect"}, {"measurement": "hepatic phospho-CREB(Ser179)", "setting": "[2]", "result": "ineffective"}, {"measurement": "hepatic phospho-CRTC2(Ser171)", "setting": "[2]", "result": "not"}, {"measurement": "hepatic glucose-6-phosphatase and PEPCK transcripts", "setting": "[2]; compared with STZ/CMC and SHAM/CMC", "result": "essentially unaffected"}]}, {"compound": "CN(C)C(=N)N=C(N)N", "note": "[metformin]", "values": [{"measurement": "reduction in daily insulin usage", "setting": "[3]", "result": 1.4, "unit": "u/d"}, {"measurement": "normalizing STZ-induced diabetes, or preventing or delaying autoimmune T1D in NOD mouse", "setting": "[4]", "result": "ineffective or only marginally effective"}]}, {"compound": "CC(C)(CCCCCCCCCCC(C)(C)CC(=O)O)CC(=O)O", "note": "[MEDICA16ββ, 3,3,14,14-tetramethylhexadecane-1,16-dioic acid]", "values": [{"measurement": "adipose adenylate cyclase", "setting": "[5]", "result": "inhibit"}]}]}
